Assay results as given in ChEMBL document CHEMBL3885861, “Open TG-GATES”.

Organism: Rattus norvegicus
Experiment: Open TG-GATES - Regimen: Single
Assay type: toxicity, organism-based, Sprague-Dawley
Parameters: regimen Single, gender Male, age 6 weeks
Conditions: in vivo, po, 400 mg/kg, route gavage, dose level Low; for APTT / Bas / Eos / Fbg / Hb / Ht / Lym / MCH / MCHC / MCV / Mono / Neu / PT / Plat / RBC / Ret / WBC: tissue Blood; for KIDNEY_L / KIDNEY_R / KIDNEY_TOTAL: tissue Kidney; for LIVER: tissue Liver; for A/G / ALP / ALT / AST / BUN / CRE / Ca / Cl / DBIL / GLC / IP / K / LDH / Na / PL / RALB / TBIL / TC / TG / TP / gamma-GTP: tissue Plasma

## CCO [ALCOHOL]
3 h
  TERMINAL_BW: 202.6 g
  APTT: 16.4 s
  Bas: 0%
  Eos: 1%
  Fbg: 202.8 mg/dL
  Hb: 13.7 g/dL
  Ht: 40.7%
  Lym: 81.2%
  MCH: 21.8 pg
  MCHC: 33.6%
  MCV: 64.7 fL
  Mono: 5.6%
  Neu: 12.2%
  PT: 12 s
  Plat: 115.5 x10_4/uL
  RBC: 628.6 x10_4/ul
  Ret: 10%
  WBC: 77.8 x10_2/uL
  KIDNEY_L: 0.9 g
  KIDNEY_R: 0.9 g
  KIDNEY_TOTAL: 1.8 g
  LIVER: 9.6 g
  A/G: 2.5
  ALP: 1037.2 IU/L
  ALT: 36.2 IU/L
  AST: 69 IU/L
  BUN: 13.8 mg/dL
  CRE: 0.5 mg/dL
  Ca: 10.7 mg/dL
  Cl: 104.4 meq/L
  DBIL: 0.012 mg/dL
  GLC: 195.8 mg/dL
  IP: 9.3 mg/dL
  K: 4.4 meq/L
  LDH: 117.6 IU/L
  Na: 139.8 meq/L
  PL: 140.4 mg/dL
  RALB: 3.9 g/dL
  TBIL: 0.4 mg/dL
  TC: 76.4 mg/dL
  TG: 66 mg/dL
  TP: 5.4 g/dL
  gamma-GTP: 1.2 IU/L
6 h
  TERMINAL_BW: 202.6 g
  APTT: 17.9 s
  Bas: 0%
  Eos: 1%
  Fbg: 220.2 mg/dL
  Hb: 13.8 g/dL
  Ht: 41.1%
  Lym: 70.4%
  MCH: 21.7 pg
  MCHC: 33.6%
  MCV: 64.6 fL
  Mono: 6.6%
  Neu: 22.4%
  PT: 11.8 s
  Plat: 114.6 x10_4/uL
  RBC: 636.6 x10_4/ul
  Ret: 10.1%
  WBC: 98 x10_2/uL
  KIDNEY_L: 0.9 g
  KIDNEY_R: 0.9 g
  KIDNEY_TOTAL: 1.8 g
  LIVER: 9.6 g
  A/G: 2.3
  ALP: 802 IU/L
  ALT: 29.8 IU/L
  AST: 61.8 IU/L
  BUN: 11.2 mg/dL
  CRE: 0.5 mg/dL
  Ca: 10.5 mg/dL
  Cl: 105 meq/L
  DBIL: 0.068 mg/dL
  GLC: 197.2 mg/dL
  IP: 9.8 mg/dL
  K: 4.7 meq/L
  LDH: 90.2 IU/L
  Na: 139.6 meq/L
  PL: 135.4 mg/dL
  RALB: 3.8 g/dL
  TBIL: 0.4 mg/dL
  TC: 75 mg/dL
  TG: 53.2 mg/dL
  TP: 5.4 g/dL
  gamma-GTP: 1.8 IU/L
9 h
  TERMINAL_BW: 203.1 g
  APTT: 18.5 s
  Bas: 0%
  Eos: 1.4%
  Fbg: 205 mg/dL
  Hb: 13.4 g/dL
  Ht: 40.1%
  Lym: 70.4%
  MCH: 21.7 pg
  MCHC: 33.5%
  MCV: 64.7 fL
  Mono: 7.6%
  Neu: 20.4%
  PT: 12 s
  Plat: 110.8 x10_4/uL
  RBC: 619 x10_4/ul
  Ret: 10.4%
  WBC: 90.1 x10_2/uL
  KIDNEY_L: 0.9 g
  KIDNEY_R: 0.9 g
  KIDNEY_TOTAL: 1.8 g
  LIVER: 8.6 g
  A/G: 2.9
  ALP: 826.6 IU/L
  ALT: 30.2 IU/L
  AST: 63 IU/L
  BUN: 12.8 mg/dL
  CRE: 0.5 mg/dL
  Ca: 10.9 mg/dL
  Cl: 105.6 meq/L
  DBIL: 0.038 mg/dL
  GLC: 199.4 mg/dL
  IP: 9.9 mg/dL
  K: 4.5 meq/L
  LDH: 106.4 IU/L
  Na: 137 meq/L
  PL: 137.4 mg/dL
  RALB: 4.1 g/dL
  TBIL: 0.4 mg/dL
  TC: 79.4 mg/dL
  TG: 37.2 mg/dL
  TP: 5.5 g/dL
  gamma-GTP: 1.8 IU/L
24 h
  TERMINAL_BW: 214.8 g
  APTT: 16.9 s
  Bas: 0%
  Eos: 1.6%
  Fbg: 196.4 mg/dL
  Hb: 13.2 g/dL
  Ht: 39.2%
  Lym: 75%
  MCH: 21.3 pg
  MCHC: 33.7%
  MCV: 63.3 fL
  Mono: 7.2%
  Neu: 17%
  PT: 11.5 s
  Plat: 122.1 x10_4/uL
  RBC: 619 x10_4/ul
  Ret: 10.5%
  WBC: 85 x10_2/uL
  KIDNEY_L: 1 g
  KIDNEY_R: 1 g
  KIDNEY_TOTAL: 2 g
  LIVER: 9.9 g
  A/G: 2.6
  ALP: 906 IU/L
  ALT: 41 IU/L
  AST: 65.4 IU/L
  BUN: 17.8 mg/dL
  CRE: 0.5 mg/dL
  Ca: 11 mg/dL
  Cl: 104.4 meq/L
  DBIL: 0.018 mg/dL
  GLC: 201 mg/dL
  IP: 8.1 mg/dL
  K: 4.7 meq/L
  LDH: 103.6 IU/L
  Na: 139 meq/L
  PL: 142 mg/dL
  RALB: 4 g/dL
  TBIL: 0.4 mg/dL
  TC: 79.2 mg/dL
  TG: 61.4 mg/dL
  TP: 5.6 g/dL
  gamma-GTP: 1.6 IU/L
